Experiments:
[1] = target: T1, CB1 receptor (Homo sapiens, UniProt P21554); experiment: Competitive [3H]CP55,940 radioligand binding, membrane from CB1 expressing HEK293 cells; conditions: for Ki CB1 (CP55,940): competition with [3H]CP55,940, N.B. = no specific binding detected up to 10 μM of test compounds; for CB1 receptor binding: not bound up to: test compound 1 nM to 10 μM
T1 construct: expressed in transfected cells; host or cells: HEK293T cells (called 'HEK293 cells' in Results), calcium phosphate transfection, membrane preparation
Source text: (§1) To evaluate binding affinity of ABK5 analogs that have a difference in the position of substituents in the N-phenyl ring (Figure 1), we performed competitive radiolabeled ligand binding assays using cell membrane from HEK293T cells transfected with human CB2 receptors. […] ABK5-1, ABK5-2, and ABK5-6 dose-dependently competed with [^3H]CP55,940 and decreased the specific binding of the radiolabeled agonist, which reflects the binding of test compounds to CB2. […] Therefore, ABK5-5 was not considered for further evaluation in this study. […] We also examined CB2 selectivity (versus CB1) of the three compounds by performing similar binding assays using membrane from CB1 expressing HEK293 cells instead of CB2 expressing cells. […] Therefore, ABK5-1 and 5-2 maintained the CB2 subtype selectivity of ABK5.
(§2) In the experiment, 1 × 10^6 HEK293T cells were seeded in a 10-cm cell culture dish and cultured for 24 h. Cells were transfected with CB1 or CB2 using the calcium phosphate method. Approximately one day after transfection, cells were harvested and centrifuged at 4 °C for 5 min at 500× g. The pellet was washed with phosphate buffered saline (PBS) twice and resuspended in PBS containing 1% protease-inhibitor cocktail (Sigma-Aldrich, St. Louis, MO, USA) consisting of 104 mM 4-(2-aminoethyl) benzene sulfonyl fluoride hydrochloride (AEBSF), 80 μM apronitin, 4 mM bestatin, 1.64 mM E-64, 2 mM leupeptin, 1.5 mM pepstatin A. Then the cells were subjected to nitrogen cavitation under 750 psi for 5 min using a Parr cell disruption bomb. The lysate was centrifuged at 500× g for 10 min at 4 °C and the supernatant was spun at 116,000× g for 45 min at 4 °C. The pellet, consisting of the cell membrane expressing CB1 or CB2, was resuspended in TME buffer solution (25 mM Tris-HCl, 5 mM MgCl2, and 1 mM EDTA, pH 7.4) with 7% (w/v) sucrose/TME buffer. The concentration of the membrane protein was determined by the Bradford assay (Bradford, 1976).
(§3) Membrane protein was mixed with 1 nM to 10 μM of the test compounds and 1 nM [^3H]CP55,940 (164.9 Ci/mmol; PerkinElmer life Sciences, Waltham, MA, USA), and TME buffer supplemented with 0.2% BSA was used to bring the total volume to 200 μL. [^3H]CP55,940 acts as tracer and agonists that bind the target receptor compete with [^3H]CP55,940. Samples were incubated for 1 h at 30 °C. Ten μM unlabeled CP55,940 was used to determine non-specific binding. Reactions were stopped by adding 5% BSA/TME buffer (w/v) and samples were filtered through a Brandel cell harvester using Whatman GF/C filter paper. Ultima Gold XR liquid scintillation cocktail (PerkinElmer Life Sciences, Waltham, MA, USA) was then added and vortexed. A Beckman Coulter 6500 liquid scintillation counter was used to measure the radioactivity of the samples.
Results are presented as the mean ± standard deviation (S.D.). The ligand binding assays and the GTPγS binding assays were both carried out in duplicate for three independent experiments. The Ki values in the ligand binding assay were calculated using the Prism software (GraphPad Software Inc., San Diego, CA, USA), using IC50 values obtained from non-linear regression fitted to the one-site binding model. The Cheng-Prusoff equation [48], which is used for calculation of Ki value is shown below. (1) Ki=IC50/1+L/Kd

[2] = system: TNF-α production in Jurkat cells; experiment: PHA/PMA-induced TNF-α production in Jurkat cells (ELISA of culture medium); assay type: cell-based, human; conditions: 10 μM, 24 h
Method: Activation of CB2 is known to have anti-inflammatory effects. There are some studies reporting that CB2 agonists decrease cytokine production in immune cells. We also reported that the cannabinoid receptor agonist CP55,940 and ABK5 inhibit cytokine production in the human T cell lines Jurkat and MOLT-4 [24]. Since ABK5-1 and 5-2 were confirmed to be CB2-subtype selective agonists, we were interested to determine whether these compounds also have anti-inflammatory effects. Note, although ABK5-6 had marginally better binding affinity to CB2, it bound to CB1 very, very weakly (i.e., micromolar range). Therefore ABK5-6 was not selected for further evaluations. […] To test if these mRNA changes are reflected in the protein levels of cytokines, the IL-2 and TNF-α concentration in the cell culture medium were measured by ELISA. […]
Figure 4 Effect of ABK5-1 and ABK5-2 on phytohemagglutinin (PHA)/phorbol 12-myristate 13-acetate (PMA)-induced cytokine production in T cells. […] IL-2 and TNF-α mRNA levels were determined by real-time PCR (RT-PCR) after ABK5-1 treatment and (A) 3 h and (B) 24 h of PHA/PMA (phytohemagglutinin/phorbol 12-myristate 13-acetate) stimulation. […] IL-2 and TNF-α mRNA were also examined after ABK5-2 treatment and (E) 3 h and (F) 24 h of stimulation, and protein levels of (G) IL-2 and (H) TNF-α were measured after 24 h stimulation. […]

[3] = target: T2, CB2 (Homo sapiens, UniProt P34972); experiment: Competitive [3H]CP55,940 radioligand binding, CB2-transfected HEK293T cell membrane; conditions: competition with [3H]CP55,940; mean ± S.D.
T2 construct: expressed in transfected cells; host or cells: HEK293T cells, calcium phosphate transfection, membrane preparation
Source text: as §1, §2
as §3, with “Reactions were stopped by adding 5% BSA/TME buffer (w/v) and samples were filtered through a Brandel cell harvester using Whatman GF/C filter paper. Ultima Gold XR liquid scintillation cocktail (PerkinElmer Life Sciences, Waltham, MA, USA) was then added and vortexed.” left out
Results are presented as the mean ± standard deviation (S.D.). […] The Ki values in the ligand binding assay were calculated using the Prism software (GraphPad Software Inc., San Diego, CA, USA), using IC50 values obtained from non-linear regression fitted to the one-site binding model. […]

T1 sequence (P21554 whole entry): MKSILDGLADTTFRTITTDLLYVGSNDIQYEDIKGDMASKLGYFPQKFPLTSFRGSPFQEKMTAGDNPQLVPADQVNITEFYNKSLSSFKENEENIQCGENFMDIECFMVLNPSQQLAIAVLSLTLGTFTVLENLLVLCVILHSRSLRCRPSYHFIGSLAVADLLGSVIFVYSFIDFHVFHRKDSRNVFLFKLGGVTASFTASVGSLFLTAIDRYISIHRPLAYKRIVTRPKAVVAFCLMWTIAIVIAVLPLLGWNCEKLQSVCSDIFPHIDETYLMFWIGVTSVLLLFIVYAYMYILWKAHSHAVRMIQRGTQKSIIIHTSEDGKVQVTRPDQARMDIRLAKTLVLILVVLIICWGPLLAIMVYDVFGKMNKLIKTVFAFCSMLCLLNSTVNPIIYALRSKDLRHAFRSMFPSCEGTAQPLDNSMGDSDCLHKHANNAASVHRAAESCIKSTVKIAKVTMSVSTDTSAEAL
T2 sequence (P34972 whole entry): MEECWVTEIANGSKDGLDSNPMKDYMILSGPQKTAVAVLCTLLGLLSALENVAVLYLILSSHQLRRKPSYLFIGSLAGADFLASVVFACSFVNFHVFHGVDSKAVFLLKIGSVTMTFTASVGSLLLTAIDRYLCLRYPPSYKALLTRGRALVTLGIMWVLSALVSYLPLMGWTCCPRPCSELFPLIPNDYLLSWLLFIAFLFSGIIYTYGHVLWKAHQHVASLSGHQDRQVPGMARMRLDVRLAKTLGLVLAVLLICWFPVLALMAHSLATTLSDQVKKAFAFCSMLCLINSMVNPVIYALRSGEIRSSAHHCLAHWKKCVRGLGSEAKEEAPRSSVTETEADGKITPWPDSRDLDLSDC

| Ki CB1 (CP55,940) [1] | CB1 receptor binding: not bound up to [1] [µM] | Ki [3] [nM] | Structure (SMILES) | decrease of TNF-α production (protein, ELISA) [2] [%] |
| --- | --- | --- | --- | --- |
| N.B. ^c | > 10 | 28 ± 5 | CCOC(=O)c1ccccc1NC(=O)CN(c1ccc(C)cc1C)S(=O)(=O)c1ccccc1 [ABK5-1] | ~37 |
| N.B. ^c | > 10 | 69 ± 19 | CCOC(=O)c1ccccc1NC(=O)CN(c1c(C)cccc1C)S(=O)(=O)c1ccccc1 [ABK5-2] | ~43 |
